Data from USRE36187E, “Acyclic pyrrolo [2,3-d]pyrimidine analogs as antiviral agents” (The Regents of the University of Michigan, priority 1994, dated 1999).

Experiments:
[1] = Visual cytotoxicity in BSC-1 cells; format: cell-based, African green monkey; conditions: monkey, visual cytotoxicity at time of HSV-1 plaque enumeration, read-out: 50% Inhibitory Concentration, Cytotoxicity BSC
Excerpt: Cytotoxicity produced in HFF and BSC-1 cells was estimated by visual scoring of cells not affected by virus infection in the HCMV and HSV-1 plaque reduction assays. Cytopathology was estimated at 35- and 60-fold magnification and scored on a zero to four plus basis. Wells were scored on the day of staining.

HCMV DNA synthesis = HCMV DNA synthesis by dot-blot hybridization; format: cell-based, human cytomegalovirus; conditions: Human betaherpesvirus 5; Table 2; read-out: 50% Inhibitory Concentration, HCMV DNA Synthesis
Description: The amount of HCMV DNA synthesis was determined in two types of experiments: (a) as an integral part of HCMV titer (yield) reduction experiments and (b) as separate experiments to determine only the amount of viral DNA synthesis in the absence or presence of test compounds.
HFF cells were planted in 25 cm^2 flasks and infected with HCMV as described in part 2 and incubated at 37° C. Before harvesting at selected times by the addition of 0.1 volume of 0.2M EDTA, an aliquot of medium was removed for determination of HCMV titer. After harvesting cells into the medium, aliquots were retained for determination of HCMV DNA by hybridization.
HFF cells were planted in 96-well cluster plates at 20,000 cell/well in 200 μl of growth medium [MEM(E)] with 1.1 gm/liter NaHCO3 and 10% fetal bovine serum. […]
Following hybridization, the membrane was washed sequentially in 100 ml 2×SSC at room temperature twice each for 5 minutes, 100 ml 2×SCC plus 1% SDS at 65° C. twice each for 30 minutes and then 100 ml 0.1×SSC at room temperature twice each for 30 minute. The membrane was dried at room temperature and each filtration spot was cut from the membrane and placed into 4 ml of toluene/DPO scintillant and hybridized label counted in a liquid scintillation spectrometer.

MCMV = test: Mortality of mice infected with murine cytomegalovirus; format: in vivo
Description: Compound UMJD 183 was tested in mice infected with murine cytomegalovirus (MCMV). This animal model has been recognized as having capabilities predictive of efficacy in humans.
Compound UMJD 183 and the drug ganciclovir (DHPG) were administered to groups of 15 mice each at doses and times of administration shown in Table 3. Each compound at all doses was administered intraperitoneally twice daily for five days beginning at either 6, 24 or 48 hours after virus inoculation. Animals were observed daily and the number dying each day recorded.
^a Animlas were treated i.p. twice daily for 5 days with the doses
stated above. Treatment was initiated at the times indicated following

[2] = 0.6 mg/kg i.p. twice daily, from 6 h
[3] = 0.6 mg/kg i.p. twice daily, from 24 h
[4] = 0.6 mg/kg i.p. twice daily, from 48 h
[5] = 1.9 mg/kg i.p. twice daily, from 6 h
[6] = 1.9 mg/kg i.p. twice daily, from 24 h
[7] = 1.9 mg/kg i.p. twice daily, from 48 h
[8] = 5.6 mg/kg i.p. twice daily, from 6 h
[9] = 5.6 mg/kg i.p. twice daily, from 24 h
[10] = 5.6 mg/kg i.p. twice daily, from 48 h
[11] = 16.7 mg/kg i.p. twice daily, from 6 h
[12] = 16.7 mg/kg i.p. twice daily, from 24 h
[13] = 16.7 mg/kg i.p. twice daily, from 48 h

## Nc1nc(O)c2ncn(COC(CO)CO)c2n1 [Ganciclovir (DHPG), reference compound]
[1]
  CC50: > 100 µM
HCMV DNA synthesis
  IC50: 1200 nM
MCMV; [2]
  MDD (Mean Day of Death): 4.6
  Mortality Percent: 93%
MCMV; [3]
  MDD (Mean Day of Death): 5.4
  Mortality Percent: 80%
MCMV; [4]
  MDD (Mean Day of Death): 5.3
  Mortality Percent: 93%
MCMV; [5]
  MDD (Mean Day of Death): 5.4
  Mortality Percent: 33%
MCMV; [6]
  MDD (Mean Day of Death): 4.9
  Mortality Percent: 80%
MCMV; [7]
  MDD (Mean Day of Death): 4.9
  Mortality Percent: 73%
MCMV; [8]
  MDD (Mean Day of Death): 4.2
  Mortality Percent: 33%
MCMV; [9]
  MDD (Mean Day of Death): 5.3
  Mortality Percent: 47%
MCMV; [10]
  MDD (Mean Day of Death): 5.5
  Mortality Percent: 67%
MCMV; [11]
  MDD (Mean Day of Death): 3.8
  Mortality Percent: 27%
MCMV; [12]
  MDD (Mean Day of Death): 5.3
  Mortality Percent: 47%
MCMV; [13]
  MDD (Mean Day of Death): 5.5
  Mortality Percent: 53%
